{"source": "patent US20090048304A1", "about": "“Crystal Form of Besipirdine Chlorhydrate, Process Preparation and Use Thereof” (UROGENE, priority 2006, published 2009)", "key": {"[1]": {"conditions": "for Stability of the crystal form in maturation studies (summary in words): all tested conditions: 25, 50, 80 °C, 8 or 72 hours, n-butyl-acetate; for Form(s) identified after maturation: maturation time 8 hours, 100 mg suspension in 2 ml n-butyl-acetate", "experimental": "100 mg suspensions of the different polymorphic forms, separated or in mixtures, in 2 ml of n-butyl-acetate, were left for maturation during 8 or 72 hours at different temperatures."}, "[2]": {"conditions": "storage conditions at room temperature, use and storing conditions of the powder"}, "[3]": {"tested_on": "bladder contractions induced by bladder irritation", "conditions": "in vivo, in rats; according to WO02/064126; cited from earlier work"}}, "note": "Like-named read-outs stand apart in the source and are kept apart here.", "data": [{"molecule": "CCCN(c1ccncc1)n1ccc2ccccc21.Cl", "note": "[Form I, N-propyl-N-(4-pyridinyl)-1H-indol-1-amine chlorhydrate]", "values": [{"measurement": "Stability of the crystal form in maturation studies (summary in words)", "setting": "[1]", "value": "stable"}, {"measurement": "Stability of the crystal form in maturation studies (summary in words)", "setting": "[1]; listed as form I", "value": "thermodynamically the most stable of the three crystal forms"}, {"measurement": "Change of the polymorphic form with time on storage", "setting": "[2]", "value": "does not evolve with time"}, {"measurement": "Change of the polymorphic form with time on storage", "setting": "[2]; listed as Polymorphic form I of besipirdine.HCl", "value": "thermodynamically the most stable of all characterized forms"}]}, {"molecule": "CCCN(c1ccncc1)n1ccc2ccccc21.Cl", "note": "[Form II, N-propyl-N-(4-pyridinyl)-1H-indol-1-amine chlorhydrate]", "values": [{"measurement": "Stability of the crystal form in maturation studies (summary in words)", "setting": "[1]", "value": "appears to be a stable form"}]}, {"molecule": "CCCN(c1ccncc1)n1ccc2ccccc21.Cl", "note": "[Form III, N-propyl-N-(4-pyridinyl)-1H-indol-1-amine chlorhydrate]", "values": [{"measurement": "Stability of the crystal form in maturation studies (summary in words)", "setting": "[1]", "value": "quickly turns into form I"}]}, {"molecule": "CCCN(c1ccncc1F)n1cc(C)c2ccccc21", "note": "[HP184, N-(3-fluoro-4-pyridinyl)-N-propyl-3-methyl-1H-indol-1-amine]", "values": [{"measurement": "Frequency of bladder contractions induced by bladder irritation", "setting": "[3]", "value": "slightly decrease the frequency of bladder contractions"}]}, {"molecule": "CCCN(c1ccncc1)n1ccc2ccccc21.Cl", "note": "[I + II, N-propyl-N-(4-pyridinyl)-1H-indol-1-amine chlorhydrate]", "values": [{"measurement": "Form(s) identified after maturation", "setting": "[1]; 25 °C", "value": "I + II"}, {"measurement": "Form(s) identified after maturation", "setting": "[1]; 50 °C", "value": "I + II"}, {"measurement": "Form(s) identified after maturation", "setting": "[1]; 80 °C", "value": "I + II"}, {"measurement": "Stability of the crystal form in maturation studies (summary in words)", "setting": "[1]; listed as mixture of forms I and II", "value": "changes towards form I"}]}]}
